Here are results for two compounds from publication PMC3963952, “The 2.1 Å Resolution Structure of Cyanopindolol-Bound β1-Adrenoceptor Identifies an Intramembrane Na^+ Ion that Stabilises the Ligand-Free Receptor” (PLoS ONE, 2014).

One data set addresses β1AR (Meleagris gallopavo, UniProt P07700). As to the method:
For the thermostability assay for the ligand-free receptor, 1–2.5 mg of E. coli-expressed membrane protein was solubilised for 30 min on ice with 1% DDM and insoluble material was removed by centrifugation (5 min, 20,000 g). Samples were then adjusted to give the desired concentration of NaCl or choline chloride. Thermostability was measured by incubating the sample at the specified temperature for 30 min; reactions were placed on ice, and ^3H-DHA was added (50 nM final concentration) and equilibrated (2 h, 4°C). Receptor-bound and free radioligand were separated by spin gel filtration assays as described previously. Nonspecific binding was determined in the presence of 1 mM alprenolol. Radioactivity was counted on a MicroBeta TriLux scintillation counter (Perkin Elmer), and data were analyzed by nonlinear regression using Prism software (GraphPad).
Figure 4 Thermostability of β1AR mutants.

In a further data set the test system is A2AR. The note with it: cited from earlier work.
Data set [1] addresses neurotensin receptor (NTSR1). Set-up: method as in PMID 23051748. Particulars: read-out: EC50 for the allosteric effect of Na+ on NTSR1; cited from earlier work.

Chain of β1AR (P07700 whole entry): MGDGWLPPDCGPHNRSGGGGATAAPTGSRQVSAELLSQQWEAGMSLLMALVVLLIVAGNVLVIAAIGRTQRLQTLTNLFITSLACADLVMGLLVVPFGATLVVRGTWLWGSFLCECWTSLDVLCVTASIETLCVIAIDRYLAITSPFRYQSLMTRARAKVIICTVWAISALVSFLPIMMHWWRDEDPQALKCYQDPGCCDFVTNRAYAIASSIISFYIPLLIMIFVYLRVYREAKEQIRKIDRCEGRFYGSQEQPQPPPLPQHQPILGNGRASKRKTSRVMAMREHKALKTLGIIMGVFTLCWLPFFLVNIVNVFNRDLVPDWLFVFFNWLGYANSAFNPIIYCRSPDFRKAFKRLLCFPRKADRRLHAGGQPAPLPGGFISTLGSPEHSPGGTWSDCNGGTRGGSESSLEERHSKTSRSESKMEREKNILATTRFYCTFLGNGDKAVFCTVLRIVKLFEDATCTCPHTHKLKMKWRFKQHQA

Take `[Cl-].[Na+]` [Na^+]: at β1AR (ligand-free β1AR, 150 mM NaCl versus 150 mM choline chloride), the “decrease of β1AR thermostability in the absence of Na+” value came to 7.5 °C. The EC50 (in general, the midpoint of the concentration-response curve) with A2AR (also calculated from data in ref 21, read-out: EC50 for the allosteric effect of Na+ on A2AR) is 40 to 48 mM; in data set [1], 43 mM. The Kd (in general, the concentration at which binding is half-saturated) on A2AR (no reference given, read-out: KD of Na+ binding to A2AR) was 40 to 50 mM.
For the compound `C[N+](C)(C)CCO.[Cl-]` [choline chloride], at β1AR (in 150 mM of the named salt, heated 30 min, ±SEM), the “apparent Tm of dodecylmaltoside-solubilised ligand-free β1AR” value is 19.1±0.6 °C.
